The record followed here is patent US9181172B2, “Rhein conjugates, preparation method thereof and their uses in producing medicines for treating diabetic nephrosis, intestinal adhesion and osteoarthritis” (priority 2005, dated 2015).

Format in all cases: in vivo
For data set [1], the system named is rats. Briefly: Intestinal adhesion in rats. As to conditions: 6 mg/kg once a day, 7th day. The protocol:
Rats were fasted for 12 h and models were built according to the methods in the literature [Xu Shuyun, Methodology in Pharmacological Experiment (the 3rd version): 1335]. The rats were randomly divided into five groups, namely, model control group, dexamethasone group, rhein sodium group, rhein glucosamine large dose group and low dose group. Each group included 12 rats. […] The rats of the model group were administered with the same volume of NS, while the rats of the positive control group were administered with dexamethasone, administered once every two days, dose: 10 mg/kg. The administration volume was the same as the treatment group. The rats were killed on the 7th day and carried on laparotomy. Adhesion degree was classified and scored respectively. The classification and score of the observed index-adhesion degree can refer to the five-grade classification method prepared by Nair, and determine the classification standard, see Schedule 13. Intestinal adhesion classification adopts Ridit analysis. The test results are as follows (Table 14): […]

For data set [2], the system named is rabbits' ear marginal veins. Briefly: Safety of hydro-acupuncture injection: irritation of rabbits' ear marginal vein. As to conditions: rabbit, in vivo. The text has this: In rabbits' ear marginal vein aseptic operation, rhein sodium salt, rhein arginine conjugates and 0.9% sodium chloride injection liquid were slowly filled into the veins respectively every two days for three consecutive times.

The test system of a further data set is mice. Briefly: Capillary permeability of mice. As to conditions: dosage 12 mg/kg. On the procedure:
Each group has 12 mice, administration: 0.20 ml/10 g. Mice in the model control group were administrated with isovolumic physiologic saline.

Data set [3] deals with rats. Put plainly: Carrageenan-induced acute pleurisy exudation and leukoplania in rats. As to conditions: intraperitoneal 20 mg/kg, four hours after carrageenan. On the procedure:
Forty male rats of 200±20 g weight were selected and divided into five groups, namely, model control group, indomethacin group, rhein sodium group, rhein glucosamine large dose group and small dose group. Eight rats for each group. The rats were administered with medicines by intraperitoneal administration, one hour later, the rats were induced with acute pleurisy by carrageenan according to the method in the literature [Xu Shuyun, Methodology in Pharmacological Experiment (the 3rd version): 916]. Four hours later, the rats were killed and the volume of pleural effusion and total white cell count were measured.

Data set [4] has as its system obese rats of high-fat and high-sugar diet. Put plainly: Body weight of obese rats of high-fat and high-sugar diet. The note with it: Group E. The text has this: Group A: conventional diet, 4 weeks later, started to carry on intragastric administration, and the same volume of distilled water as the control, once daily, three weeks in succession.
Group B: high-fat high-sugar diet, 4 weeks later, started to carry on intragastric administration, and the same volume of distilled water as the model control, once daily, three weeks in succession.
Group C: high-fat high-sugar diet, 4 weeks later, started to carry on intragastric administration of rhein lysine conjugates [dose: 90 mg/kg (0.209 mmol/kg), prepared by distilled water], once daily, three weeks in succession.
Group D: high-fat high-sugar diet, 4 weeks later, started to carry on intragastric administration of rhein lysine conjugates [dose: 45 mg/kg (0.105 mmol/kg), prepared by distilled water], once daily, three weeks in succession.
Group E: high-fat high-sugar diet, 4 weeks later, started to carry on intragastric administration of rhein sodium [dose: 65 mg/kg (0.212 mmol/kg), prepared by distilled water], once daily, three weeks in succession.

For data set [5], the system named is rats. Put plainly: Formation of granuloma in rats (arthritis example, test 4). As to conditions: 20 mg/kg intragastric, two weeks. On the procedure:
Rats were randomly divided into five groups (model control group, indomethacin group, rhein glucosamine large dose group and small dose group and rhein sodium group). Each group has 10 […]. According to the method in the literature [Xu Shuyun, Methodology in Pharmacological Experiment (the 3rd version): 918], the models were built, and the rats were administered with medicines since the day when starting operations. […] Two weeks later, the rats were killed and test was carried on according to the method in the literature. The net weight of granulation was calculated, and t test was used for the intergroup comparison.

The structures appear in SMILES notation. Structures can show the parent of a compound that is named as a salt.

Consider `O=C(O)c1cc(O)c2c(c1)C(=O)c1cccc(O)c1C2=O` [Rhein sodium salt, rhein sodium salt], for which, in the data set with rats [1] (number of 12 rats with completely no adhesion), the “Rating of adhesion degree 0” value is on record as 1. Further, the “Rating of adhesion degree III” value in the data set with rats [1] (number of 12 rats with more than two adhering zones) is 3. The “Rating of adhesion degree I” value with rats [1] (number of 12 rats with one adhering zone) is recorded as 4. The “Rating of adhesion degree IV” value in the data set with rats [1] (number of 12 rats with organs adhering to abdominal wall directly) amounted to 2. In addition, in the data set with rats [1] (number of 12 rats with two adhering zones), the “Rating of adhesion degree II” value was 2. In data set [2], the “biopsy of rabbits' ear marginal vein” value was “slight with partial endothelial cell necrosis and abscission, and inflammatory response of the surrounding tissues”; the “irritation on rabbits' ear marginal veins” value is reported as “has irritation”. Besides, the absorbance value in the data set with mice came to 0.494 ± 0.134. Moreover, in the data set on rats [3], the “Volume of exudation fluid” value is on record as 0.33 ± 0.12 and the WBC is recorded as 3.98 ± 1.64 ×109/L. Besides, the “The body weight increased 7 weeks after high-sugar high-fat diet” value in data set [4] (after three weeks ig 65 mg/kg once daily) was 17.1 ± 4.1 g. The “The body weight increased 4 weeks after high-sugar high-fat diet” value in data set [4] (before start of ig 65 mg/kg) is on record as 15.8 ± 4.3 g. In the data set with rats [5], the “Net weight of granulation” value is on record as 15.23 ± 2.99Δ Δ mg.
